The values below come from US12351580B2, “NLRP3 modulators” (Innate Tumor Immunity, Inc., priority 2017, dated 2025).

T1 sequence (Q96P20 whole entry): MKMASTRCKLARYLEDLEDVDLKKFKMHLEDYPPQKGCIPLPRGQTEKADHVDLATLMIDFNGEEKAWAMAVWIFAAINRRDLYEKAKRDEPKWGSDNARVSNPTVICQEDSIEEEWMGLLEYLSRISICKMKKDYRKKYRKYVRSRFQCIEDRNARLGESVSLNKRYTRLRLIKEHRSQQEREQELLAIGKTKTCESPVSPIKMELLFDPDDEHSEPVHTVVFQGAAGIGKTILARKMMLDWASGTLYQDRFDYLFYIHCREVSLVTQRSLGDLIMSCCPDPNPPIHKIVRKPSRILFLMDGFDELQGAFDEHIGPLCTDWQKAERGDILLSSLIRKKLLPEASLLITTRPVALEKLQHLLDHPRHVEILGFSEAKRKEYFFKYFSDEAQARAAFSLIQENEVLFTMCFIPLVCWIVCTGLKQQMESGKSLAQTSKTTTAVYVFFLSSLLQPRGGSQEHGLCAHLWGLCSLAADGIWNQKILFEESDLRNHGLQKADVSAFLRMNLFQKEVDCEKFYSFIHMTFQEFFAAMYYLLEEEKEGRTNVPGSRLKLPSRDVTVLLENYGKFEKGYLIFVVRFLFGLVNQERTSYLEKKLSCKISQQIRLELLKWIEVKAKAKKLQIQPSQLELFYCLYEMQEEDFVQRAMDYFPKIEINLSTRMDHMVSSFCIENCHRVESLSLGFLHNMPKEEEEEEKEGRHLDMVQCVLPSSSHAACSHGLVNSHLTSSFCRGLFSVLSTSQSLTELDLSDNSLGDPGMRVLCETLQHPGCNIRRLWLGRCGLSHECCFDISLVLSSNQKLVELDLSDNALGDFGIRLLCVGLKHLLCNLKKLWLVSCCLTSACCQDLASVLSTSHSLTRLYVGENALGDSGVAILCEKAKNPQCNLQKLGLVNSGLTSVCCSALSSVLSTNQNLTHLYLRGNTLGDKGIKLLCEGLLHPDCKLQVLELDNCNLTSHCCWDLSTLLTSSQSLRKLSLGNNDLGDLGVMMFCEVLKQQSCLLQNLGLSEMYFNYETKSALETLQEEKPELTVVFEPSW

This experiment concerns the target T1, hNLRP3 (Homo sapiens, UniProt Q96P20).
T1 construct: THP-1 cells were purchased from the American Type Culture Collection; host or cells: THP-1 cells, PMA-differentiated
Nature of the experiment: Measurement of IL-1β production in PMA-differentiated THP-1 cells (hNLRP3 agonist; ELISA, alternative and hTRF procedures). The format is cell-based. On the procedure:
Measurement of IL-1β production in PMA-differentiated THP-1 cells THP-1 cells were purchased from the American Type Culture Collection and sub-cultured according to instructions from the supplier. Prior to experiments, cells were cultured in RPMI 1640 containing 10% heat inactivated FBS, penicillin (100 units/ml) and streptomycin (100 μg/ml), and maintained in log phase prior to experimental setup. Prior to the experiment THP-1 were treated with PMA (Phorbol 12-myristate 13-acetate) ([…]) for 24 hours. The day of the experiment the media was removed and attaching cells were treated with trypsin for 2 minutes, cells were then collected, washed with PBS (phosphate buffer saline), spin down, resuspended in 2% heat inactivated FBS with RPMI at a concentration of 1×10^6 cells/ml, and 100 μl was plated in a 96 well plate. Compounds were dissolved in dimethyl sulfoxide (DMSO) and added to the culture medium to achieve desired concentration (e.g. 100, 30, 10, 3, 1, 0.3 or 0.1 μM). Cells were incubated with compounds for 4 hours. Cell free supernatant was collected and the production of […] was evaluated by ELISA. A vehicle only control was run concurrently with each experiment. Final DMSO concentration was 1%.
Measurement of IL-1β Production in PMA-Differentiated THP-1 Cells (Alternative Procedure)
THP-1 cells were purchased from the American Type Culture Collection and sub-cultured according to instructions from the supplier. Prior to experiments, cells were cultured in RPMI 1640 containing 10% heat inactivated FBS, penicillin (100 units/ml), streptomycin (100 μg/ml), HEPES (10 mM) and sodium pyruvate (1 mM) and maintained in log phase prior to experimental setup. Prior to the experiment, THP-1 cells were treated with PMA (Phorbol 12-myristate 13-acetate) (20 μg/ml) overnight. The day of the experiment, the media was removed and attached cells were treated with trypsin for 2 minutes, cells were then collected, washed with PBS (phosphate buffer saline), pelleted by centrifugation and resuspended in 2% heat inactivated FBS with RPMI at a concentration of 50,000 cells/well in a 384 well plate. Cell free supernatant was collected and the production of IL-1β was evaluated by ELISA. Compounds were dissolved in dimethyl sulfoxide (DMSO) and added to the culture medium to achieve desired concentration (e.g. 100, 30, 10, 3, 1, 0.3 or 0.1 μM). Cells were incubated with compounds for 2 hours. A vehicle only control was run concurrently with each experiment. Final DMSO concentration was 1%.
Measurement of IL-1β Production—hTRF Protocol (Second Alternative Procedure)
Serial dilutions of compounds in DMSO were added to low volume 384 well plates at 100 nl/well using an ECHO 550 acoustic dispenser (Labcyte) to achieve final starting concentration of 10 μM in assay.
THP-1 cells in RPMI (Gibco, 11875) media with 10% FBS at a density of 1×10^6 cell/ml in a T175 flask were treated with a final concentration of phorbol 12-myristate 13-acetate (PMA) (Sigma, P1585) of 50 ng/ml overnight at 37° C. at 5% CO2 for differentiation. Cells were harvested the next day after rinsing well with dPBS using 0.5% trypsin. A cell solution was prepared of 1×10^6 cells/ml for 50,000 cells in 50 μl/well in RPMI media with 2% FBS. Cells were plated using a multichannel pipette onto the compound dilutions in Greiner, 384 well, black clear bottom tissue culture treated plates (781090). The plates were incubated in 37° C. incubator at 5% CO2 for 2 hours.
After the 2 hour incubation, the cell plates were spun in the centrifuge for 5 minutes at 1200 rpm. Using the Felix (CyBio), 8 μl of the supernatant was transferred to 384 well, low volume, white proxy plates. (Perkin Elmer, 6008230). A human IL1beta hTRF kit was used to analyze the supernatant (CISBIO, 62HIL1BPEG). The kit instructions were followed for preparing the IL1Beta standard curve and then the antibodies from the kit were diluted 1:40 rather than 1:20 as kit instructed.
Background: ELISA stands for enzyme-linked immunosorbent assay.
By EC50 is commonly meant the concentration that produces a half-maximal response. Read a high EC50 as lower potency in that assay. As to `CCN(Cc1nc2c(N)nc3ccccc3c2n1CCC(=O)N1CCN(C(=O)OC(C)(C)C)CC1)C(C)=O` [Compound 212], a half-maximal effect (EC50) was put at 85 µM. In turn, `CCN(Cc1nc2c(N)nc3cc(Br)ccc3c2n1CCCC(=O)N(C)C)C(C)=O` [Compound 213] came in with an EC50 of 17.6 µM.

In the case of `CCN(Cc1nc2c(N)nc3cc(Br)ccc3c2n1CCCC(=O)N1CCOCC1)C(C)=O` [Compound 214], the EC50 worked out at 51.5 µM. The figure for `CN(C)C(=O)CCCn1c(CN2CCCC2=O)nc2c(N)nc3cc(Br)ccc3c21` [Compound 215] is 18.2 µM.

With `COC(=O)CCCn1c(CN2CCCC2=O)nc2c(N)nc3cc(Cl)ccc3c21` [Compound 216], the midpoint of the response, the EC50, lay at 6.6 µM. The compound `CCN(Cc1nc2c(N)nc3cc(Cl)ccc3c2n1CCCC(=O)NC)C(C)=O` [Compound 217] showed an EC50 of 96 µM.

For `CCN(Cc1nc2c(N)nc3cc(Br)ccc3c2n1CCCC(=O)OC)C(C)=O` [Compound 218], the EC50 came to 1.2 µM. As to `CCN(Cc1nc2c(N)nc3cc(Cl)ccc3c2n1CCCC(=O)OC)C(C)=O` [Compound 219], the response was half-maximal at 2 µM (EC50). In the case of `CCN(Cc1nc2c(N)nc3cc(Cl)ccc3c2n1CCCC(=O)N1CCOCC1)C(C)=O` [Compound 220], the response was half-maximal at 51 µM (EC50). With `CCN(Cc1nc2c(N)nc3cc(Cl)ccc3c2n1CCCC(=O)N1CCN(C)CC1)C(C)=O` [Compound 221], it took 85 µM to reach a half-maximal effect (EC50). The value for `CCN(Cc1nc2c(N)nc3cc(Cl)ccc3c2n1CCCC(=O)N1CCCC1)C(C)=O` [Compound 222] was 42 µM.

Take `CCN(Cc1nc2c(N)nc3ccccc3c2n1CCC(=O)N1CCS(=O)(=O)CC1)C(=O)OC(C)(C)C` [Compound 223]: the midpoint of the response, the EC50, lay at 77 µM. `CCNCc1nc2c(N)nc3cc(Br)ccc3c2[nH]1` [Compound 225] showed an EC50 of 10.9 µM. Compound `CCN(Cc1nc2c(N)nc3cc(C(F)(F)F)ccc3c2n1CCCC(=O)NC)C(=O)OC(C)(C)C` [Compound 226] displayed an EC50 of 85 µM.

As for `CCNCc1nc2c(N)nc3cc(C(F)(F)F)ccc3c2n1CCCC(=O)OC` [Compound 227], a half-maximal effect (EC50) was put at 22.7 µM. The figure for `CCN(Cc1nc2c(N)nc3cc(C(F)(F)F)ccc3c2n1CCCC(=O)N1CCOCC1)C(=O)OC(C)(C)C` [Compound 228] is 93 µM. `CCN(Cc1nc2c(N)nc3cc(C(F)(F)F)ccc3c2n1CCCC(=O)OC)C(C)=O` [Compound 229] displayed a half-maximal effective concentration (EC50) of 12.3 µM. As to `COc1ccc(-c2ccc3c(c2)nc(N)c2nc(CN4CCCC4=O)[nH]c23)cc1` [Compound 230], the EC50 is 4.5 µM. The compound `CC(=O)NCc1nc2c(N)nc3ccccc3c2[nH]1` [Compound 233] registered an EC50 of 120 µM.

For `Nc1nc2ccccc2c2[nH]c(CN3CCCC3=O)nc12` [Compound 278], the EC50 was 10.8 µM. The figure for `Nc1nc2cc(-c3cccnc3)ccc2c2[nH]c(CN3CCCC3=O)nc12` [Compound 279, 1-[(4-amino-7-pyridin-3-yl-1H-imidazo[4,5-c]quinolin-2-yl)methyl]pyrrolidin-2-one] is 7.5 µM; for `Nc1nc2cc(-c3ccccc3)ccc2c2[nH]c(CN3CCCC3=O)nc12` [Compound 280, 1-[(4-amino-7-phenyl-1H-imidazo[4,5-c]quinolin-2-yl)methyl]pyrrolidin-2-one] it is 0.22 µM. `Nc1nc2cc(-c3ccccc3Cl)ccc2c2[nH]c(CN3CCCC3=O)nc12` [Compound 281, 1-[[4-amino-7-(2-chlorophenyl)-1H-imidazo[4,5-c]quinolin-2-yl]methyl]pyrrolidin-2-one] had an EC50 of 1.4 µM. Against the preceding compound, the EC50 is about 6.4-fold higher. Turning to `Cc1ccccc1-c1ccc2c(c1)nc(N)c1nc(CN3CCCC3=O)[nH]c12` [Compound 282, 1-[[4-amino-7-(2-methylphenyl)-1H-imidazo[4,5-c]quinolin-2-yl]methyl]pyrrolidin-2-one], a half-maximal response (EC50) required 4.8 µM. Consider `COc1ccccc1-c1ccc2c(c1)nc(N)c1nc(CN3CCCC3=O)[nH]c12` [Compound 283, 1-[[4-amino-7-(2-methoxyphenyl)-1H-imidazo[4,5-c]quinolin-2-yl]methyl]pyrrolidin-2-one], for which the response was half-maximal at 6.5 µM (EC50). In the case of `Nc1nc2cc(-c3ccccc3F)ccc2c2[nH]c(CN3CCCC3=O)nc12` [Compound 284, 1-[[4-amino-7-(2-fluorophenyl)-1H-imidazo[4,5-c]quinolin-2-yl]methyl]pyrrolidin-2-one], the EC50 stood at 0.86 µM. The figure for `Nc1nc2cc(-c3cccc(Cl)c3)ccc2c2[nH]c(CN3CCCC3=O)nc12` [Compound 285, 1-[[4-amino-7-(3-chlorophenyl)-1H-imidazo[4,5-c]quinolin-2-yl]methyl]pyrrolidin-2-one] is 5.7 µM. `Cc1cccc(-c2ccc3c(c2)nc(N)c2nc(CN4CCCC4=O)[nH]c23)c1` [Compound 286, 1-[[4-amino-7-(3-methylphenyl)-1H-imidazo[4,5-c]quinolin-2-yl]methyl]pyrrolidin-2-one] returned an EC50 of 0.61 µM.

For the compound `COc1cccc(-c2ccc3c(c2)nc(N)c2nc(CN4CCCC4=O)[nH]c23)c1` [Compound 287, 1-[[4-amino-7-(3-methoxyphenyl)-1H-imidazo[4,5-c]quinolin-2-yl]methyl]pyrrolidin-2-one], the EC50 came to 1.08 µM. The compound `N#Cc1cccc(-c2ccc3c(c2)nc(N)c2nc(CN4CCCC4=O)[nH]c23)c1` [Compound 288, 3-[4-amino-2-[(2-oxopyrrolidin-l-yl)methyl]-1H-imidazo[4,5-c]quinolin-7-yl]benzonitrile] had an EC50 of 10.1 µM. As to `Nc1nc2cc(-c3cccc(F)c3)ccc2c2[nH]c(CN3CCCC3=O)nc12` [Compound 289, 1-[[4-amino-7-(3-fluorophenyl)-1H-imidazo[4,5-c]quinolin-2-yl]methyl]pyrrolidin-2-one], the EC50 was found to be 1.58 µM.

Turning to `Cc1ccc(-c2ccc3c(c2)nc(N)c2nc(CN4CCCC4=O)[nH]c23)cc1` [Compound 291, 1-[[4-amino-7-(4-methylphenyl)-1H-imidazo[4,5-c]quinolin-2-yl]methyl]pyrrolidin-2-one], it took 0.11 µM to reach a half-maximal effect (EC50). The value for `Nc1nc2cc(Br)ccc2c2[nH]c(CN3CCCC3=O)nc12` [Compound 294, 1-[(4-amino-7-bromo-1H-imidazo[4,5-c]quinolin-2-yl)methyl]pyrrolidin-2-one] was 4.6 µM. `Nc1nc2cc(-n3cccn3)ccc2c2[nH]c(CN3CCCC3=O)nc12` [Compound 295, 1-[(4-amino-7-pyrazol-1-yl-1H-imidazo[4,5-c]quinolin-2-yl)methyl]pyrrolidin-2-one] showed an EC50 of 1.2 µM. The compound `Cc1cnn(-c2ccc3c(c2)nc(N)c2nc(CN4CCCC4=O)[nH]c23)c1` [Compound 296, 1-[[4-amino-7-(4-methylpyrazol-1-yl)-1H-imidazo[4,5-c]quinolin-2-yl]methyl]pyrrolidin-2-one] had an EC50 of 5.1 µM. The compound `Nc1nc2cc(C3CCOCC3)ccc2c2[nH]c(CN3CCCC3=O)nc12` [Compound 298, 1-[[4-amino-7-(oxan-4-yl)-1H-imidazo[4,5-c]quinolin-2-yl]methyl]pyrrolidin-2-one] gave an EC50 of 21 µM. On to `Cc1ccn(-c2ccc3c(c2)nc(N)c2nc(CN4CCCC4=O)[nH]c23)n1` [Compound 301, 1-[[4-amino-7-(3-methylpyrazol-1-yl)-1H-imidazo[4,5-c]quinolin-2-yl]methyl]pyrrolidin-2-one], for which a half-maximal response (EC50) required 2.93 µM. The compound `Nc1nc2cc(C3CCCCC3)ccc2c2[nH]c(CN3CCCC3=O)nc12` [Compound 302, 1-[(4-amino-7-cyclohexyl-1H-imidazo[4,5-c]quinolin-2-yl)methyl]pyrrolidin-2-one] gave an EC50 of 0.93 µM.
